Experimental findings from patent US20250368608A1, “SELECTIVE HDAC6 INHIBITOR” (ROYAL COLLEGE OF SURGEONS IN IRELAND, priority 2021, published 2025) are described below.

Entries after “also recorded” stand apart in the source; their conditions may differ.

One series concerns acetylated tubulin. The series is described as follows: Western blot of acetylated tubulin in cells. The series is classed as cell-based. The settings on record: increasing doses. As for the experimental part: (§1) Protein samples for Western blot analysis were separated by 12% SDS-PAGE gels. Following separation on the gel, proteins were transferred using electrophoresis onto a nitrocellulose membrane and blocked at room temperature shaking in 5% milk (w/v) in TBS containing 0.5% Tween-20 (TBS-T). Membranes were incubated overnight at 4° C. with primary antibody. HRP tagged secondary antibodies were diluted in TBS-T/5% milk for 1 hr. Antibody reactive bands were detected with LAS-3000, Fujifilm. Fluorescent secondary antibodies were diluted 1:10000 in TBS-T/5% milk for 1 hour. Antibody reactive bands were detected with the Odyssey® infrared imaging system (LI-COR Biosciences). IRDye® 680LT and 800CW-Infrared Dye coupled anti-rabbit or anti-mouse (LI-COR Biosciences).
For orientation: A western blot detects proteins with antibodies after separation by electrophoresis.

Another series relates to Histone 4 (H4). The series can be described thus: Acetylation of Histone 4 in cells. The class given is cell-based. As for the experimental part: as §1
Series [1] concerns BT549 cells. The series is described as follows: Migration and invasion assays (Boyden chamber). The class given is cell-based. The settings on record: BT549, 30 μM. As for the experimental part:
(§2) Cell migration and invasion experiments were performed using the Boyden Chamber Assay (Corning, CLS3464). 500,000 cells were seeded in serum free RPMI media (Thermo Fisher Scientific, 118757093) in the upper chamber and RPMI media containing 10% FBS (Sigma, F2442), was placed in the lower chamber. For invasion experiments the upper chamber was coated with Matrigel™ (Corning). […] Following 24 hrs (migration experiments) or 48 hrs (invasion experiments) treatment cells were stained with 0.5% crystal violet.

Series [2] relates to MDA231 cells. The series can be described thus: Migration and invasion assays (Boyden chamber). The class given is cell-based. The settings on record: MDA231, 30 μM. As for the experimental part:
as §2

A further series relates to MDA231. The series can be described thus: 3D spheroid formation in Matrigel. The class given is cell-based. The settings on record: MDA231, 30 μM. As for the experimental part: Individual wells of a 6 well plate was coated with Matrigel™ (Corning) and placed in an incubator at 37° C. for 30 min. 50,000 cells/ml were resuspended in RPMI supplemented with 2% Matrigel™ Cells were placed in Matrigel™ coated wells for 30 min at 37° C., after which RMPI supplemented with 2% Matrigel™ was added to the cultures. […] Cells were maintained in culture for 7 days in an incubator at 37° C., 5% CO2 and cultures imaged every 24 hrs with Nikon ECLIPSE TE300.

Series [3] is classed as in vivo. The settings on record: 50 mg/kg, while on treatment.
Series [4] has as its system aldolase. The series can be described thus: Aldolase activity assay. The class given is cell-based. As to the method:
(§3) The activity assay was performed as per the manufacturer's instructions (Aldolase: Biovision, K665, GAPDH: Sigma, MAK277). Values were normalized to protein concentrations and fold change was calculated relative to DMSO.

In another series the test system is GAPDH. The series can be described thus: GAPDH activity assay. The series is classed as cell-based. As to the method: as §3
Series [5] deals with aldolase. The series is described as follows: Immunoprecipitation with acetyl beads. The class given is cell-based. The settings on record: 10 μM, 24 hr treatment. As to the method:
Cell lysates were prepared in lysis buffer (50 mM Tris-HCL PH 7.4, 150 mM NACL, 1% Triton x100, 1 mM EDTA and protease inhibitors). Protein was quantified and 500 μg of protein was added to 20 μl of A-agarose beads (Pierce, 20333) and allowed to rotate for 1 hr at 4° C. and 3000 rpm. Proteins were centrifuged for 3 minutes at 3000 rpm at 4° C. Supernatant was added to 500 μl of lysis buffer, […] pan-specific anti-acetylated lysine beads (Immunechem, ICP0388) or control agarose beads, and made up to 1 ml with dH2O. Samples were rotated overnight at 4° C. at 3000 rpm. Samples were washed with lysis buffer and were resuspended in 30 μl of 2×IP Dye with BME and boiled and ran out on 12% SDS-PAGE gel.

The subject of a further series is MCF10a cells. The series is described as follows: Extracellular flux assay (ECAR, glycolysis). The series is classed as cell-based. The settings on record: 10 μM, 24 hr. As for the experimental part: (§4) The bioenergetic function of cells in response to drug treatments was determined using a Seahorse Bioscience XF96 Extracellular Flux Analyzer (Seahorse Bioscience). Cells were seeded in specialized V7 Seahorse tissue culture plates (Agilent, 102601-100) for 24 hrs. […] One hr prior to experiment, cells were washed and changed to XF Base medium (Agilent, 10353-100) adjusted to pH 7.4. For OXPHOS experiments medium was supplemented with pyruvate (1 mM), L-glutamine (2 mM) and glucose (10 mM). […] For glycolysis experiments medium was supplemented with L-glutamine (1 mM). […] For all analysis values were normalized to protein concentration before baseline measurements were subtracted. The fold change was calculated relative to DMSO.

In series [6] the test system is MDA231 cells. The series is described as follows: Extracellular flux assay (ECAR, glycolysis). The class given is cell-based. The settings on record: MDA231, 10 μM, 24 hr. As for the experimental part: as §4
Another series relates to 4T1 cell line. The series can be described thus: Extracellular flux assay (ECAR, glycolysis). The class given is cell-based, mouse. The settings on record: 4T1, 24 hrs. As for the experimental part:
as §4

Series [7] relates to MDA231 cells. The series is described as follows: U-13C6-glucose stable isotope tracing, GC-MS. The series is classed as cell-based. The settings on record: MDA231, 10 μM, 24 hrs. As to the method: Cells were seeded in 12-well tissue culture plates and left to adhere overnight. […] Following treatment, media was removed and cells were washed with 1×PBS before adding basic RPMI (Thermo Fisher Scientific, 11879020) supplemented with dialyzed FBS (Gibico 26400044) and either 10 mM of [U]-^13C6 labelled glucose (Cambridge Isotopes CLM-1396) for 30 minutes or tracing media containing 10 mM 1,2-^13C labelled glucose (Cambridge Isotopes CLM-504) for 12 h. Cellular metabolites were extracted after a brief wash with 0.9% ice-cold saline solution using a methanol/water/chloroform extraction method, as previously described (48).
(§5) Metabolite derivitzation using MOX-tBDMS was conducted as previously described (49).
(§6) Derivatized samples were analyzed by GC-MS using a DB-35MS column (30 m×0.25 mm i.d.×0.25 μm) installed in an Agilent 7890B gas chromatograph (GC) interfaced with an Agilent 5977B mass spectrometer as previously described (50) and corrected for natural abundance using in-house algorithms adapted from (51).

The subject of series [8] is MDA231 cells. The series can be described thus: Metabolite secretion, GC-MS. The class given is cell-based. The settings on record: MDA231, 10 μM, 24 hrs. As for the experimental part:
Media was centrifuged at 1,000×g to pellet cell debris and 5 μL of supernatant was extracted in 80% ice-cold methanol mixture containing isotope-labeled internal standards for lactate (Cayman Chemicals CLM-1579), and pyruvate (Cayman Chemicals CLM-2440) and evaporated to dryness.
as §5, §6

Series [9] deals with mitochondrial membrane potential. The series can be described thus: Mitochondrial membrane potential (TMRE). The class given is cell-based. The settings on record: 10 μM. As to the method:
Apoptosis was assessed by Annexin V/propidium iodide (Biolegend, 640906, Sigma P4170) staining using LSRII Biosciences, Facscanto. Cell viability was detected by CellTiter-Glo® (My Bio, G3582) according to the manufacture's protocol. Mitochondrial membrane potential was measured by adding Tetramethylrhodamine, ethyl ester (TMRE) (Biosciences, T669) at 20 nM for 30 minutes at 37° C. and assessed by flow cytometry with FACS CANTO II.

The test system of series [10] is BT549 cells. The series can be described thus: Extracellular flux assay (OCR). The class given is cell-based. The settings on record: BT549, 10 μM. As to the method:
as §4

The test system of the next series is MDA-231 cells. The series is described as follows: Extracellular flux assay (OCR). The class given is cell-based. The settings on record: MDA-231, 10 μM. As for the experimental part: as §4
Series [11] has as its system 4T1 tumors. The series can be described thus: Tumor metabolites by GC-MS, 4T1 syngeneic breast cancer model. The class given is in vivo, mouse. The settings on record: 4T1 model. As to the method: Following 7 or 14 days treatment mice was fasted for 6-8 h prior to euthanasia and tumor harvest. Tumor metabolites were extracted in methanol/water/chloroform using the Qiagen TissueLyser LT, evaporated to dryness and resuspended in 80% methanol. The equivalent volume for 5 mg of tissue was further extracted in 80% ice-cold methanol mixture containing isotope-labeled standards for lactate (Cayman Chemicals CLM-1579), and pyruvate (Cayman Chemicals CLM-2440) and evaporated to dryness.
as §5, §6

Series [12] has as its system 4T1 tumors. The series is described as follows: 4T1 syngeneic breast mouse model. The settings on record: 50 mg/kg, two weeks, 4T1 model.
For the next series, the system named is HDAC proteins (HDAC1-9). The series is described as follows: HDAC inhibitory assay, isozyme panel. The settings on record: in vitro HDAC inhibitor screen.
The subject of another series is MMTV-pyMT tumors. The series is described as follows: MMTV-pyMT genetic breast mouse model. The settings on record: 50 mg/kg, two weeks.

On to `O=C(CSC1=NC2CCCCC2N1)N1CCOCC1` (stereo not drawn) [BAS-2], for which the acetylated tubulin level result with acetylated tubulin was “increase in the acetylated tubulin”. Besides, the “acetylation of Histone 4 (H4)” value in the series on Histone 4 (H4) was “did not cause an increase in acetylation of Histone 4”. Further, the “cell migration and invasion” value in the series on BT549 cells [1] was “significant reduction in both cell migration and invasion”; with MDA231 cells [2] it was “significant reduction in both cell migration and invasion”. Moreover, in the series with MDA231, the 3D spheroid formation result is reported as “reduction in 3D spheroid formation”. Further, the “toxicity as assessed by weight of the mice” value in [3] is recorded as “did not detect any overt evidence of toxicity”. In addition, the aldolase enzymatic activity result is on record as “dose-dependent significant reduction in aldolase enzymatic activity” in the series on aldolase [4] (BT-549 cells) and “dose-dependent significant reduction in aldolase enzymatic activity” in the series with aldolase [4] (MDA231 cells, 24 hrs). Besides, the GAPDH activity entry with GAPDH (BT-549) and in the series on GAPDH (MDA-231) was “dose dependent reduction in GAPDH activity” throughout. In addition, in the series on aldolase [5], the acetylation of aldolase entry was “increased the acetylation of aldolase”. Further, the “glycolysis and glycolytic capacity (ECAR)” value with MCF10a cells was “did not affect the glycolysis or glycolytic capacity”. Besides, in the series on MDA231 cells [6], the “glycolytic capacity (ECAR)” value is “reduced the glycolytic capacity”. Moreover, the “glycolysis and glycolytic flux” value in the series on 4T1 cell line was “decrease in glycolysis and glycolytic flux”. Besides, the “carbon incorporation from glucose into PEP, 3PG, lactate and pyruvate” value in the series with MDA231 cells [7] is recorded as “significant reduction in carbon incorporation from glucose”. In addition, the “secretion of lactate and pyruvate” value in the series on MDA231 cells [8] is “significant reduction in the secretion of lactate and pyruvate”. Further, the mitochondrial membrane potential result in [9] was “no loss of mitochondrial membrane potential”. Besides, the “OCR, basal respiration and ATP production” value with BT549 cells [10] and in the series on MDA-231 cells was “did not observe any significant changes in OCR” in each case. For the same compound, in the series on 4T1 tumors [11], the intratumoral lactate result is on record as “trend towards decreased intratumoral lactate”. Further, the intratumoral pyruvate levels entry with 4T1 tumors [11] is recorded as “significant reduction in intratumoral pyruvate levels”. In addition, in the series with 4T1 tumors [12], the “tumor weight and tumor volume” value is “reduction in tumor weight and tumor volume; also recorded: reduce tumor volume and weight”. For the same compound, the HDAC isozymes inhibited result in the series with HDAC proteins (HDAC1-9) is reported as “inhibited only the isozyme HDAC6”. Further, in the series on MMTV-pyMT tumors, the tumor volume entry is “reduction in tumor volume”.
